Assay results from ChEMBL document CHEMBL5380820, “Design and Discovery of Novel Cyclic Peptides as EDPs-EBP Interaction Inhibitors for the Treatment of Liver Fibrosis” (J Med Chem, 2023).
Active and inactive are the calls of the source. The calls are words filed in the database; no cut-off is given here. Where a SMILES comes first, the peptide text is derived from it. Bridges are numbered along the chain shown (N, C = ends). [ ]: non-standard residue; d: D form. Aib = CC(C)(N)C(=O)O

How the values were obtained:
Mus musculus [1] = experiment: Antifibrotic activity in CCl4-induced C57BL/6 mouse model of liver fibrosis assessed as reduction in serum ALT level treated at 150 ug/kg, ip daily for 3 weeks; type: functional, organism-based; settings: dose 150.0 µg/kg
Mus musculus [2] = experiment: Antifibrotic activity in CCl4-induced C57BL/6 mouse model of liver fibrosis assessed as reduction in serum AST level treated at 150 ug/kg, ip daily for 3 weeks; type: functional, organism-based; settings: dose 150.0 µg/kg
LX-2 [3] = experiment: Antifibrotic activity against TGF-beta induced human LX2 cells assessed as inhibition of neuraminidase activity using NA fluorogenic substrate by measuring fluorescence intensity relative to control; type: functional
LX-2 [4] = experiment: Antifibrotic activity against TGF-beta induced human LX2 cells assessed as inhibition of alpha-SMA expression by measuring fluorescence intensity relative to control; type: functional
LX-2 [5] = experiment: Antifibrotic activity against TGF-beta induced human LX2 cells assessed as inhibition of collagen I expression by measuring fluorescence intensity relative to control; type: functional
LX-2 [6] = experiment: Antifibrotic activity against TGF-beta induced human LX2 cells assessed as reduction of alpha-SMA expression measured at 10 uM for 24 hrs by measuring fluorescence intensity relative to control; type: functional; parameters: scale not given: the % may be the effect or the level left
LX-2 [7] = experiment: Antifibrotic activity against TGF-beta induced human LX2 cells assessed as reduction of collagen I expression measured at 10 uM for 24 hrs by measuring fluorescence intensity relative to control; type: functional; parameters: scale not given: the % may be the effect or the level left
LX2 [8] = experiment: Inhibition of elastin receptor complex elastin binding protein subunit in human LX2 cells assessed as inhibition of EDP induced ERK phosphorylation treated at 10 uM for 24 hrs by Western blot analysis; type: cell-based
LX2 [9] = experiment: Inhibition of elastin receptor complex elastin binding protein subunit in human LX2 cells assessed as inhibition of EDP induced PI3K phosphorylation treated at 10 uM for 24 hrs by Western blot analysis; type: cell-based
LX2 [10] = experiment: Inhibition of elastin receptor complex elastin binding protein subunit in human LX2 cells assessed as inhibition of EDP induced AMPK phosphorylation treated at 10 uM for 24 hrs by Western blot analysis; type: cell-based
LX-2 [11] = experiment: Antifibrotic activity against TGF-beta induced human LX2 cells assessed as reduction of alpha-SMA expression measured at 10 uM for 24 hrs by measuring fluorescence intensity; type: functional, cell-based
LX-2 [12] = experiment: Antifibrotic activity against TGF-beta induced human LX2 cells assessed as reduction of collagen I expression measured at 10 uM for 24 hrs by measuring fluorescence intensity; type: functional, cell-based
LX-2 [13] = experiment: Antifibrotic activity against TGF-beta induced human LX2 cells assessed as inhibition of neuraminidase activity using NA fluorogenic substrate measured at 10 uM for 24 hrs by measuring fluorescence intensity; type: functional, cell-based

Compound	inhibition (INH) (LX-2 [3]) [%]	inhibition (INH) (LX-2 [4]) [%]	inhibition (INH) (LX-2 [5]) [%]	Activity (LX-2 [11])	further results
Cc1ccc(=O)n(-c2ccccc2)c1	–	–	–	–	Activity (Mus musculus [1]): Active; Activity (Mus musculus [2]): Active
CC(C)C[C@H](NC(=O)[C@@H]1CCCN1C(=O)[C@H](CO)NC(=O)[C@H](C)NC(=O)[C@H](CCC(=O)O)NC(=O)[C@@H]1CC(=O)N[C@@H](C(C)C)C(=O)N[C@@H](C(C)C)C(=O)NCC(=O)N[C@@H](CO)C(=O)N2CCC[C@H]2C(=O)N[C@@H](CO)C(=O)N[C@@H](C)C(=O)N[C@@H](CCC(N)=O)C(=O)N1)C(=O)O (VVGSPSAQDEASPL-OH; lactam N-9)	62.2	39	36.1	–	Activity (LX-2 [6]): ~50%; Activity (LX-2 [7]): ~50%; inhibition (LX2 [8]): Active; inhibition (LX2 [9]): Active; inhibition (LX2 [10]): Active
CC(C)C[C@@H]1NC(=O)[C@@H]2CCCN2C(=O)[C@H](CO)NC(=O)[C@H](C)NC(=O)[C@H](CCC(=O)O)NC(=O)[C@H](CC(=O)O)NC(=O)[C@H](CCC(N)=O)NC(=O)[C@H](C)NC(=O)[C@H](CO)NC(=O)[C@@H]2CCCN2C(=O)[C@H](CO)NC(=O)CNC(=O)[C@H](C)NC(=O)[C@H](C(C)C)NC1=O (cyclo(AGSPSAQDEASPLV))	44	11.5	0.9	–	–
CC(C)C[C@@H]1NC(=O)[C@H](C(C)C)NC(=O)[C@H](C)NC(=O)[C@@H]2CCCN2C(=O)[C@H](CO)NC(=O)[C@H](C)NC(=O)[C@H](CCC(=O)O)NC(=O)[C@H](CC(=O)O)NC(=O)[C@H](CCC(N)=O)NC(=O)[C@H](C)NC(=O)[C@H](CO)NC(=O)[C@@H]2CCCN2C(=O)[C@H](CO)NC(=O)CNC1=O (cyclo(AQDEASPAVLGSPS))	42.2	20.7	1.6	–	–
CC(C)[C@@H]1NC(=O)CNC(=O)[C@@H]2CCCN2C(=O)[C@H](CO)NC(=O)[C@H](C)NC(=O)[C@H](CCC(=O)O)NC(=O)[C@H](CC(=O)O)NC(=O)[C@H](CCC(N)=O)NC(=O)[C@H](C)NC(=O)[C@H](CS)NC(=O)[C@@H]2CCCN2C(=O)[C@H](CO)NC(=O)CNC(=O)[C@H](C(C)C)NC1=O (cyclo(AQDEASPGVVGSPC))	36.4	5.3	12.3	–	–
CC(C)[C@@H]1NC(=O)CNC(=O)[C@@H]2CCCN2C(=O)[C@H](CO)NC(=O)[C@H](C)NC(=O)[C@H](CCC(=O)O)NC(=O)[C@H](CC(=O)O)NC(=O)[C@H](CCC(N)=O)NC(=O)[C@H](C)NC(=O)[C@H](CC(=O)O)NC(=O)[C@@H]2CCCN2C(=O)[C@H](CO)NC(=O)CNC(=O)[C@H](C(C)C)NC1=O (cyclo(AQDEASPGVVGSPD))	49.5	17.6	2.2	–	–
CC(C)[C@@H]1NC(=O)CNC(=O)[C@@H]2CCCN2C(=O)[C@H](CO)NC(=O)[C@H](C)NC(=O)[C@H](CCC(=O)O)NC(=O)[C@H](CC(=O)O)NC(=O)[C@H](CCC(N)=O)NC(=O)[C@H](C)NC(=O)CNC(=O)[C@@H]2CCCN2C(=O)[C@H](CO)NC(=O)CNC(=O)[C@H](C(C)C)NC1=O (cyclo(AQDEASPGVVGSPG))	2.6	5.3	8.5	–	–
CC(C)C[C@@H]1NC(=O)[C@H](C(C)C)NC(=O)[C@H](CC(C)C)NC(=O)[C@@H]2CCCN2C(=O)[C@H](CO)NC(=O)[C@H](C)NC(=O)[C@H](CCC(=O)O)NC(=O)[C@H](CC(=O)O)NC(=O)[C@H](CCC(N)=O)NC(=O)[C@H](C)NC(=O)[C@H](CO)NC(=O)[C@@H]2CCCN2C(=O)[C@H](CO)NC(=O)CNC1=O (cyclo(AQDEASPLVLGSPS))	27.4	–	–	–	inhibition (LX-2 [4]): inactive; inhibition (LX-2 [5]): inactive
CC(C)C[C@@H]1NC(=O)[C@@H]2CCCN2C(=O)[C@H](CO)NC(=O)[C@H](C)NC(=O)[C@H](CCC(=O)O)NC(=O)[C@H](CC(=O)O)NC(=O)[C@H](CCC(N)=O)NC(=O)[C@H](C)NC(=O)[C@H](CCCCN)NC(=O)[C@@H]2CCCN2C(=O)[C@H](CO)NC(=O)CNC(=O)[C@H](C(C)C)NC(=O)[C@H](C(C)C)NC1=O (cyclo(AQDEASPLVVGSPK))	30	2.8	1.7	–	–
CC(C)C[C@@H]1NC(=O)[C@@H]2CCCN2C(=O)[C@H](CO)NC(=O)CNC(=O)[C@H](C(C)C)NC(=O)[C@H](C(C)C)NC(=O)[C@H](CC(C)C)NC(=O)[C@@H]2CCCN2C(=O)[C@H](CO)NC(=O)[C@H](C)NC(=O)[C@H](CCC(=O)O)NC(=O)[C@H](CC(=O)O)NC(=O)[C@H](CCC(N)=O)NC(=O)[C@H](C)NC1=O (cyclo(AQDEASPLVVGSPL))	9	1.7	9.8	–	Activity (Mus musculus [1]): Active; Activity (Mus musculus [2]): Active
CC(C)C[C@@H]1NC(=O)[C@@H]2CCCN2C(=O)[C@H](CO)NC(=O)[C@H](C)NC(=O)[C@H](CCC(=O)O)NC(=O)[C@H](CC(=O)O)NC(=O)[C@H](CCC(N)=O)NC(=O)[C@H](C)NC(=O)[C@H]([C@@H](C)O)NC(=O)[C@@H]2CCCN2C(=O)[C@H](CO)NC(=O)CNC(=O)[C@H](C(C)C)NC(=O)[C@H](C(C)C)NC1=O (cyclo(AQDEASPLVVGSPT))	27	9.9	13.9	–	–
CC(C)C[C@@H]1NC(=O)[C@@H]2CCCN2C(=O)[C@H](CO)NC(=O)C(C)(C)NC(=O)[C@H](CCC(=O)O)NC(=O)[C@H](CC(=O)O)NC(=O)[C@H](CCC(N)=O)NC(=O)[C@H](C)NC(=O)[C@H](CO)NC(=O)[C@@H]2CCCN2C(=O)[C@H](CO)NC(=O)CNC(=O)[C@H](C(C)C)NC(=O)[C@H](C(C)C)NC1=O (cyclo(AQDE[Aib]SPLVVGSPS))	35	5.2	–	–	inhibition (LX-2 [5]): inactive
CC(C)C[C@@H]1NC(=O)[C@@H]2CCCN2C(=O)[C@H](CO)NC(=O)[C@H](C)NC(=O)[C@H](CCC(=O)O)NC(=O)[C@H](CC(=O)O)NC(=O)[C@H](CCC(N)=O)NC(=O)C(C)(C)NC(=O)[C@H](CO)NC(=O)[C@@H]2CCCN2C(=O)[C@H](CO)NC(=O)CNC(=O)[C@H](C(C)C)NC(=O)[C@H](C(C)C)NC1=O (cyclo(ASPLVVGSPS[Aib]QDE))	75	24.1	26.8	–	Activity (LX-2 [6]): ~50%; Activity (LX-2 [7]): ~50%; inhibition (LX2 [8]): Active; inhibition (LX2 [9]): Active; inhibition (LX2 [10]): Active
H-AVGSPSAQDEASPL-NH2	31.2	3.9	6.2	–	–
H-VAGSPSAQDEASPL-NH2	60	26.4	28	Active	Activity (LX-2 [12]): Active
H-VVASPSAQDEASPL-NH2	26.8	–	6.9	inactive	inhibition (LX-2 [4]): inactive; Activity (LX-2 [13]): inactive; Activity (LX-2 [12]): inactive
H-VVGAPSAQDEASPL-NH2	26.7	–	5.9	inactive	inhibition (LX-2 [4]): inactive; Activity (LX-2 [13]): inactive; Activity (LX-2 [12]): inactive
H-VVGSASAQDEASPL-NH2	24.4	3.6	7.5	Active	–
H-VVGSPAAQDEASPL-NH2	55.3	33.4	34.6	–	Activity (LX-2 [12]): Active
H-VVGSPSAADEASPL-NH2	19.1	10.6	11.8	inactive	Activity (LX-2 [13]): inactive; Activity (LX-2 [12]): inactive
H-VVGSPSAQAEASPL-NH2	33.4	7.1	5.2	Active	–
H-VVGSPSAQDAASPL-NH2	20.7	–	17.6	Active	inhibition (LX-2 [4]): inactive
H-VVGSPSAQDEAAPL-NH2	28.6	11.3	21.7	Active	–
H-VVGSPSAQDEASAL-NH2	23.9	18.5	20.6	inactive	Activity (LX-2 [13]): inactive; Activity (LX-2 [12]): inactive
H-VVGSPSAQDEASPA-NH2	54.7	38.7	34.6	Active	Activity (LX-2 [12]): Active
